IC50 and GI50 data for 13 molecules are collected here from patent publication US12582654B2, “Cyano-substituted pyridine and cyano-substituted pyrimidine compound and preparation method therefor and application thereof” (BEIJING SCITECH-MQ PHARMACEUTICALS LIMITED, priority 2019, dated 2026).

One assay deals with FGFR4 kinase (Homo sapiens, UniProt P22455). Briefly: Inhibition of FGFR4 kinase activity (ULight-labeled JAK-1 peptide, EU665/EU615 reading). The assay is classed as biochemical. To be noted: FGFR4 kinase 3.85 nM, ATP 100 μM, enzymatic reaction 2 hours. The procedure: (§1) Assay of activity of small molecule compounds on inhibiting FGFR4 kinase and FGFR4 V550L mutant kinase. The assay method was as follows:
(§2) 1) Dilution of Compounds:
(§3) In a 96-well plate a, the compounds were serially diluted 3-fold with DMSO to form 11 concentrations, and the 12th concentration was pure DMSO (as a positive control); In a new 96-well plate b, the above solutions were diluted 25-fold with ultrapure water (DMSO concentration was 4%).
(§4) 2) Transferring Compounds to a 384-Well Plate:
(§5) The above solutions of compounds diluted with ultrapure water in the 96-well plate b were pipetted into corresponding wells of a 384-well plate.
(§6) 3) Adding 4× kinase solution: 2.5 μl of the above 4× kinase solutions were pipetted with a multi-channel pipette into corresponding reaction wells of the 384-well plate, and the mixture was mixed well and pre-reacted at room temperature for 5 minutes.
(§7) 4) Adding 2× substrate/ATP mixture: 5 μl of the above 2× substrate/ATP mixtures were pipetted with a multi-channel pipette into corresponding reaction wells of the 384-well plate.
(§8) 5) Negative control: negative control wells were set up in the 384-well plate by adding 2.5 μl of 4× substrate, 2.5 μl of 4× enzyme solution, 2.5 μl of 1× kinase Assay Buffer and 2.5 μl of ultrapure water containing 4% DMSO to each well.
(§9) 6) Centrifuging, mixing well, and reacting at room temperature in the dark for 2 hours.
(§10) 7) Terminating the Enzymatic Reaction:
(§11) 5 μl of the above 4× stop solutions were pipetted into corresponding wells of the 384-well plate, and the mixture was centrifuged, mixed well, and then reacted at room temperature for 5 minutes.
(§12) 8) Development of the Reaction:
(§13) 5 μl of the above 4× detection solutions were pipetted into corresponding wells of the 384-well plate, and the mixture was centrifuged, mixed well, and then reacted at room temperature for 1 hour.
(§14) 9) The 384-well plate was placed into a plate reader, and the signal was detected using the appropriate program.
(§15) 10) Analysis of IC50: Reading of well=10000*EU665 value/EU615 value Inhibition rate=(reading of positive control well−reading of assay well)/(reading of positive control well−reading of negative control well)*100%
(§16) The corresponding IC50 can be calculated by inputting the drug concentrations and corresponding inhibition rates into GraphPad Prism 5 and processing.
Assay Conditions for Screening FGFR4 Kinase Activity Inhibitory Molecule:
The final concentration of FGFR4 kinase in the reaction system was 3.85 nM, the final concentration of ATP was 100 μM, the final concentration of substrate ULight™-labeled JAK-1 (Tyr1023) Peptide was 100 nM, and the time for enzymatic reaction was 2 hours.
The highest final concentration of the compound in the reaction system was 2.5 μM. After serial 3-fold dilution, there were 11 concentrations in total, and the lowest final concentration was 0.042 nM. The final concentration of DMSO was 1%.

The next assay has as its target T1, Ba/F3 ETV6-FGFR4 cells (Homo sapiens, UniProt P22455).
T1 construct: fused on or other part: N-terminal part of ETV6 (TEL), the oligomerising partner that makes the FGFR4 kinase constitutively active; P41212 (Transcription factor ETV6)
The assay is described as follows: Inhibition of cell proliferation (CCK-8), Ba/F3 ETV6-FGFR4 cells. The assay is classed as cell-based. As to conditions: 72 hours of incubation, read-out: Ba/F3 ETV6-FGFR4 IC50. The procedure:
(§17) Compounds were assayed for inhibiting cell proliferation, and the specific method was as follows: • 1. Cells were cultured to a logarithmic growth phase, pipetted evenly, transferred to a 15 mL centrifuge tube, and centrifuged at 1000 rpm at room temperature for 4 minutes; • 2. The supernatant was discarded; 5 mL of complete medium was added and pipetted evenly; 10 μL of cell suspension was weighed, mixed well with 10 μL of 0.4% trypan blue, and counted under a cell counter; the proportion of living cells was ensured to be above 90%; • 3. The cell suspension was seeded into a 96-well plate (80 μL of cell suspension per well) according to the conditions shown in Table 5; in the outer 36 wells of the 96-well plate, no cells were added but only sterile water was added; only the inner 60 wells were used for cell assay and control; • 4. 5× compound dilution: the compounds were serially diluted 4-fold to give a total of 9 concentrations; 80-fold overall dilution was completed with complete medium, the resulting concentration was 5 times the final drug concentration, and DMSO concentration was 1.25%; • 5. 20 μL of the corresponding compounds with different concentrations were added to each well of assay wells of the 96-well plate; 20 μL of complete medium was added to positive and negative control wells and shaken well; and the final concentration of DMSO in each well was 0.25%; • 6. After 72 hours of incubation, 10 μL of CCK-8 reagent was added to each well and further incubated at 37° C. for 1-2 hours; and the OD value was read at 450 nm; 7. Cell survival rate (%)=[(As−Ab)/(Ac−Ab)]*100% • As: Assay well (medium containing cells, CCK-8, compound) • Ac: Control well (medium containing cells, CCK-8) • Ab: Blank well (medium without cell and compound, CCK-8) • 8. The values were imported into Graphpad Prism 5 software for IC50 calculation.

The target in the next assay is FGFR4 V550L kinase (Homo sapiens, UniProt P22455, V550L). Briefly: Inhibition of FGFR4 V550L mutant kinase activity (ULight-labeled PolyGT, EU665/EU615 reading). Format: biochemical. To be noted: FGFR4 V550L kinase 1 nM, ATP 10 μM, enzymatic reaction 2 hours. The procedure: as §1, §2, §3, §4, §5, §6, §7, §8, §9, §10, §11, §12, §13, §14, §15, §16
Chain of FGFR4 V550L kinase (P22455 22-802 V550L): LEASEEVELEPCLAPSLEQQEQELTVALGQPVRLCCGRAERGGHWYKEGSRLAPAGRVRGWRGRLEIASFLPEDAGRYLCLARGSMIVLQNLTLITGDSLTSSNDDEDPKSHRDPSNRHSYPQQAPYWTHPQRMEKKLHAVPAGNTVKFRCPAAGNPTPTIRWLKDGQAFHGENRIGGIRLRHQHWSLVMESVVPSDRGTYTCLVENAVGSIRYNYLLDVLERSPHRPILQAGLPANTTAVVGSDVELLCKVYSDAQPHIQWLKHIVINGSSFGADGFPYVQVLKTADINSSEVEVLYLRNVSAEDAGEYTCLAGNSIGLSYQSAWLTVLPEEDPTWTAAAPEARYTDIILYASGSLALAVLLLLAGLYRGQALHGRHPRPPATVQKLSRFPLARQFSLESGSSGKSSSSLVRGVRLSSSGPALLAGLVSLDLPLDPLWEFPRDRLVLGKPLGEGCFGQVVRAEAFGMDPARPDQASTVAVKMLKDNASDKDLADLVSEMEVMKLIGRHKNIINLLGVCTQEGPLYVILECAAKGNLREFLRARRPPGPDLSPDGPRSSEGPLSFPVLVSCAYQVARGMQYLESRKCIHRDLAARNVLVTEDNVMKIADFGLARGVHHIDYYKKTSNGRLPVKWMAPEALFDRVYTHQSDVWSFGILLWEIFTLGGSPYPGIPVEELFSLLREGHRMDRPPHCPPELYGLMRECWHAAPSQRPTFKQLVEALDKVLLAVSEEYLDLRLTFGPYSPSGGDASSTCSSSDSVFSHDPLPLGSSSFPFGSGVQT
Assay Conditions for Screening FGFR4 V550L Kinase Activity Inhibitory Molecule:
The final concentration of FGFR4 V550L kinase in the reaction system was 1 nM, the final concentration of ATP was 10 μM, the final concentration of substrate ULight™-labeled PolyGT was 100 nM, and the time for enzymatic reaction was 2 hours.
The highest final concentration of the compound in the reaction system was 2.5 μM. After seral 3-fold dilution, there were 11 concentrations in total, and the lowest final concentration was 0.042 nM. The final concentration of DMSO was 1%.

Assay [1] has as its target T2, Ba/F3 ETV6-FGFR4-V550L cells (Homo sapiens, UniProt P22455, V550L, cells depend on it).
T2 construct: fused on or other part: N-terminal part of ETV6 (TEL), the oligomerising partner of the fusion; already named as the first entry; P41212 (Transcription factor ETV6)
The assay is described as follows: Inhibition of cell proliferation (CCK-8), Ba/F3 ETV6-FGFR4-V550L cells. Format: cell-based. As to conditions: 72 hours of incubation, read-out: Ba/F3 ETV6-FGFR4-V550L IC50. The protocol: as §17

Each structure is given as a SMILES string.

Chain of FGFR4 kinase (P22455 22-802): as the sequence (P22455 22-802 V550L) above, with L529V counted along it
T2 sequence (P22455 whole entry V550L, the tested form may be a part): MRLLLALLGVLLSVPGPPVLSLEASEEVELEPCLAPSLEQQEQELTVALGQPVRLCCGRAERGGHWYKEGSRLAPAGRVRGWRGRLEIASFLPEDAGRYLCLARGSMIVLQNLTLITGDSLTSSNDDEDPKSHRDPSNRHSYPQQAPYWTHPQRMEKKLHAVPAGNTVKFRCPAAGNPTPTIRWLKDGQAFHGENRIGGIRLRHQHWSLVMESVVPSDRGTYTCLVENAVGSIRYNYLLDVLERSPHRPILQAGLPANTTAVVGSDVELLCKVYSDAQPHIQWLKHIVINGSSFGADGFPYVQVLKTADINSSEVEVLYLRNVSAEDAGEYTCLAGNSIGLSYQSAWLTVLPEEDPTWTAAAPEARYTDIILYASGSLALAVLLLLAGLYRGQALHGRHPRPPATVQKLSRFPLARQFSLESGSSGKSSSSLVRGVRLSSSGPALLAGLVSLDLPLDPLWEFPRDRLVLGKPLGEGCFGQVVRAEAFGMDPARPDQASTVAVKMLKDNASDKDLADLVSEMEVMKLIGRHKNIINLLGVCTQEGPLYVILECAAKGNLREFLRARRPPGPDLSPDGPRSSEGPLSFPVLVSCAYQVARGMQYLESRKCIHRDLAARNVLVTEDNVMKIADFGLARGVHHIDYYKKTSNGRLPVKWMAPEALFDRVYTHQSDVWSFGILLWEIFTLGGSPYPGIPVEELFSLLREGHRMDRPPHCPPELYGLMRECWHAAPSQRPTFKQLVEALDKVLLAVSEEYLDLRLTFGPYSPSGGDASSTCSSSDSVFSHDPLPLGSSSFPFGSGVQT
T1 sequence (P22455 whole entry, change not shown, the tested form may be a part): as the sequence (P22455 whole entry V550L, the tested form may be a part) above, with L550V counted along it

Broadly, the IC50 is the point on the concentration scale where inhibition reaches its midpoint. With `C=CC(=O)Nc1cc(N2CCC(N(C)C)CC2)c(F)cc1Nc1ncc(C#N)c(Nc2ccccc2OC(C)C)n1` [Example 16, N-(2-((5-cyano-4-((2-isopropoxyphenyl)amino)pyrimidin-2-yl)amino)-5-(4-(dimethylamino)piperidin-1-yl)-4-fluorophenyl) acrylamide], the IC50 against FGFR4 kinase was 0.01 to 0.05 µM; against FGFR4 V550L kinase, at most 0.01 µM. The GI50 (at Ba/F3 ETV6-FGFR4 cells; in assay [1]) was at most 0.01 µM in each case.
`C=CC(=O)Nc1cc(N2CCC(N3CCN(CCOC)CC3)CC2)ccc1Nc1ncc(C#N)c(Nc2ccccc2OC(C)C)n1` [Example 58, N-(2-((5-cyano-4-((2-isopropoxyphenyl)amino)pyrimidin-2-yl)amino)-5-(4-(4-(2-methoxyethyl)piperazin-1-yl)piperidin-1-yl)phenyl) acrylamide]: the IC50 at FGFR4 kinase is 0.01 to 0.05 µM; against FGFR4 V550L kinase it was at most 0.01 µM. The GI50 (at Ba/F3 ETV6-FGFR4 cells; in assay [1]) was at most 0.01 µM each time.
With `C=CC(=O)Nc1cc(N2CCN(CC)CC2)ccc1Nc1ncc(C#N)c(Nc2ccc(Cl)cc2OC(C)C)n1` [Example 29, N-(2-((4-((4-chloro-2-isopropoxyphenyl)amino)-5-cyanopyrimidin-2-yl)amino)-5-(4-ethylpiperazin-1-yl)phenyl) acrylamide], the IC50 at FGFR4 kinase and against FGFR4 V550L kinase was 0.01 to 0.05 µM in each case. The GI50 (at Ba/F3 ETV6-FGFR4 cells; in assay [1]) was at most 0.01 µM throughout.
For the molecule `C=CC(=O)Nc1cc(N2CCC(N(C)CCOC)CC2)ccc1Nc1ncc(C#N)c(Nc2ccccc2OC(C)C)n1` [Example 56, N-(2-((5-cyano-4-((2-isopropoxyphenyl)amino)pyrimidin-2-yl)amino)-5-(4-((2-methoxyethyl) (methyl)amino)piperidin-1-yl)phenyl) acrylamide], the IC50 against FGFR4 kinase is 0.01 to 0.05 µM; against FGFR4 V550L kinase it was at most 0.01 µM. The GI50 (on Ba/F3 ETV6-FGFR4 cells; in assay [1]) was at most 0.01 µM in each case.
As to `C=CC(=O)Nc1cc(N2CCC(N(C)C3CCOC3)CC2)ccc1Nc1ncc(C#N)c(Nc2ccccc2OC(C)C)n1` (stereo not shown) [Example 77, N-(2-((5-cyano-4-((2-isopropoxyphenyl)amino)pyrimidin-2-yl)amino)-5-(4-(methyl (tetrahydrofuran-3-yl)amino)piperidin-1-yl)phenyl) acrylamide], the IC50 at FGFR4 kinase and against FGFR4 V550L kinase was at most 0.01 µM throughout. Moreover, the GI50 (at Ba/F3 ETV6-FGFR4 cells; in assay [1]) was at most 0.01 µM in each case.
Regarding `C=CC(=O)Nc1cc(N2CCC(N3CCC(F)CC3)CC2)ccc1Nc1ncc(C#N)c(Nc2ccccc2OC(C)C)n1` [Example 64, N-(2-((5-cyano-4-((2-isopropoxyphenyl)amino)pyrimidin-2-yl)amino)-5-(4-fluoro-[1,4-bipiperidin]-1‘- yl)phenyl) acrylamide], the IC50 on FGFR4 kinase and against FGFR4 V550L kinase was 0.01 to 0.05 µM in each case. Moreover, the GI50 (on Ba/F3 ETV6-FGFR4 cells; in assay [1]) was at most 0.01 µM throughout.
Regarding `C=CC(=O)Nc1cc(N2CCC(N(C)CCCOC)CC2)ccc1Nc1ncc(C#N)c(Nc2ccccc2OC(C)C)n1` [Example 69, N-(2-((5-cyano-4-((2-isopropoxyphenyl)amino)pyrimidin-2-yl)amino)-5-(4-((3-methoxypropyl) (methyl)amino)piperidin-1-yl)phenyl) acrylamide], the IC50 on FGFR4 kinase and at FGFR4 V550L kinase was at most 0.01 µM throughout. Besides, the GI50 (on Ba/F3 ETV6-FGFR4 cells; in assay [1]) was at most 0.01 µM each time.
In the case of `C=CC(=O)Nc1cc(N2CCN(CC)CC2)ccc1Nc1ncc(C#N)c(Nc2ccc(C(F)(F)F)cc2OC(C)C)n1` [Example 34, N-(2-((5-cyano-4-((2-isopropoxy-4-(trifluoromethyl)phenyl)amino)pyrimidin-2-yl)amino)-5-(4-ethylpiperazin-1-yl)phenyl) acrylamide], the figures for the IC50 against FGFR4 kinase and against FGFR4 V550L kinase were 0.05 to 0.1 µM and 0.01 to 0.05 µM, respectively. In addition, the GI50 (at Ba/F3 ETV6-FGFR4 cells; in assay [1]) was 0.01 to 0.05 µM each time.
Consider `C=CC(=O)Nc1cc(N2CCN(CC)CC2)ccc1Nc1ncc(C#N)c(Nc2c(F)cccc2OC(C)C)n1` [Example 21, N-(2-((5-cyano-4-((2-fluoro-6-isopropoxyphenyl)amino)pyrimidin-2-yl)amino)-5-(4-ethylpiperazin-1-yl)phenyl) acrylamide], for which the IC50 against FGFR4 kinase and against FGFR4 V550L kinase was 0.01 to 0.05 µM each time. Besides, the figures for the GI50 (at Ba/F3 ETV6-FGFR4 cells; in assay [1]) were at most 0.01 µM and 0.01 to 0.05 µM, respectively.
Take `C=CC(=O)Nc1cc(N2CCN(CC)CC2)ccc1Nc1ncc(C#N)c(Nc2ccc(O)cc2OC(C)C)n1` [Example 28, N-(2-((5-cyano-4-((4-hydroxy-2-isopropoxyphenyl)amino)pyrimidin-2-yl)amino)-5-(4-ethylpiperazin-1-yl)phenyl) acrylamide]: the IC50 against FGFR4 kinase and at FGFR4 V550L kinase was at most 0.01 µM throughout. Also, the GI50 was in the range of 0.1 to 1 µM on Ba/F3 ETV6-FGFR4 cells and 0.05 to 0.1 µM in assay [1].
With `C=CC(=O)Nc1cc(N2CCC(N(C)C)CC2)ccc1Nc1ncc(C#N)c(Nc2ccccc2OC(C)C)n1` [Example 2, N-(2-((5-cyano-4-((2-isopropoxyphenyl)amino)pyrimidin-2-yl)amino)-5-(4-(dimethylamino)piperidin-1-yl)phenyl) acrylamide], the IC50 is 0.01 to 0.05 µM at FGFR4 kinase and at most 0.01 µM against FGFR4 V550L kinase. In addition, the GI50 (at Ba/F3 ETV6-FGFR4 cells; in assay [1]) was at most 0.01 µM each time.
With `C=CC(=O)Nc1cc(N2CCN(CC)CC2)ccc1Nc1ncc(C#N)c(Nc2ccc(CCC)cc2OC(C)C)n1` [Example 38, N-(2-((5-cyano-4-((2-isopropoxy-4-propylphenyl)amino)pyrimidin-2-yl)amino)-5-(4-ethylpiperazin-1-yl)phenyl) acrylamide], the IC50 against FGFR4 kinase and against FGFR4 V550L kinase was 0.05 to 0.1 µM in each case. Moreover, the GI50 (at Ba/F3 ETV6-FGFR4 cells; in assay [1]) was 0.01 to 0.05 µM in each case.
For `C=CC(=O)Nc1cc(N2CCC(N3CCN(C)CC3)CC2)c(C)cc1Nc1ncc(C#N)c(Nc2ccccc2OC(C)C)n1` [Example 13, N-(2-((5-cyano-4-((2-isopropoxyphenyl)amino)pyrimidin-2-yl)amino)-4-methyl-5-(4-(4-methylpiperazin-1-yl)piperidin-1-yl)phenyl) acrylamide], the IC50 against FGFR4 kinase and against FGFR4 V550L kinase was 0.01 to 0.05 µM throughout. The GI50 at Ba/F3 ETV6-FGFR4 cells is at most 0.01 µM; in assay [1] it was 0.01 to 0.05 µM.
